Results: US9597347B2, “Compositions for treating obesity and insulin resistance disorders” (President and Fellows of Harvard College, priority 2003, dated 2017)

What was measured:
[1] = system: TNF-alpha treated adipocytes; experiment: Radioactive glucose uptake in TNF-alpha treated, insulin resistant adipocytes; format: cell-based; settings: resveratrol 5 μM or 15 μM; roziglitazone 4 μM (positive control); with TNF-alpha
Procedure: Adipocytes were treated with TNF-alpha to induce insulin resistance as described in Kabayama et al., Glycobiology 15:21-29 (2005) and Wu et al., Mol. Cell 3:151-8 (1999).

[2] = system: DAF-16 mutant worms (mgDf47); experiment: Nile Red staining of fat accumulation in DAF-16 mutant worms (mgDf47); format: in vivo, C. elegans; settings: defective in insulin-signaling
Procedure: Sir2.1, which is activated by resveratrol, acts via the transcription factor DAF-16 to prolong lifespan in […] (Tissenbaum and Guarente (2001) Nature 410:227).
C. elegans strains were maintained as described at 25° C., except when noted (Brenner (1974) Genetics 77:71). The wild type reference strain was N2 Bristol; the mutant strains were: sir-2.1(ok434), T01C8.1(ok524), and daf-16 (mgDf47). Daf-16 (mgDf47) was obtained from the Ruvkun laboratory, MGH; all other strains were obtained from the Caenorhabditis Genetics Center (from C. Elegans Gene Knockout Consortium).
Synchronized starved L1 worms were grown in the presence of Nile Red. Strains were grown on NGM plates at 25° C. for approximately 48 hours until the young adult stage was reached. 20-30 young adult worms were then washed 2× with M9 buffer and transferred to new NGM/Nile red experimental plates that contained either OP50 or HTT5 E. coli carrying the L4440 RNAi control vector. For experiments comparing the effect of nicotinamide and resveratrol on fat mobilization, OP50 plates were coated with vehicle alone or Nicotinamide (in PBS), or vehicle alone and Resveratrol (in Ethanol or DMSO).

NIH3T3 cells = experiment: Adipocyte differentiation and fat content by Oil Red O staining, NIH3T3 cells; format: cell-based
Procedure: To obtain evidence that resveratrol affects fat metabolism in a physiologically relevant cell, we examined the effect of increasing concentrations of resveratrol on 3T3-L1 and NIH3T3 cell differentiation and fat content. 3T3-L1 or NIH3T3 cells were grown to confluence and allowed to pack in for 2 days at which point differentiation was initiated by addition of isobutylmethylxanthine, dexamethasone and insulin in the presence of vehicle (ethanol alone) or resveratrol at concentrations of 0, 12.5 and 25 μM. After 10 days of differentiation, fat content was assessed by Oil Red O staining, as described below. The results, which are shown in FIG. 12, indicate that concentrations of 25 μM or higher resveratrol decreased the quantity of cellular fat in 3T3-L1 and NIH3T3 cells. The results in NIH3T3 cells confirm the results obtained in C. elegans.
To further examine whether resveratrol activation of sir2 could promote fat mobilization or inhibition of differentiation in mammalian cells, we infected growing cells with wild-type SIRT1 or a deacetylase deficient form of SIRT1. […]
3T3-L1 and NIH3T3 cells were maintained in DMEM plus 10% calf serum. […] The staining of adipocytes with Oil Red-O and quantitation was performed as described previously (Ramirez-Zacarias J L, Castro-Munozledo F, Kuri-Harcuch W. Histochemistry. 1992 July; 97(6):493-7). […]

Structure (SMILES): Oc1ccc(/C=C/c2cc(O)cc(O)c2)cc1 [resveratrol, 3,5,4′-Trihydroxy-trans-stilbene]
- radioactive glucose uptake / insulin sensitivity [1]: partially rescued the TNF-alpha treated adipocytes restoring insulin sensitivity
- fat mobilization and fat accumulation [2]: stimulates fat mobilization and a decrease in fat accumulation
- concentrations that decreased the quantity of cellular fat (NIH3T3 cells; 10 days of differentiation, 0, 12.5 and 25 μM tested, Oil Red O): ≥ 25 µM
- decrease in fat content (NIH3T3 cells; cells expressing SIRT1 deacetylase deficient mutant (SIRT1ΔHY), 0, 12.5 or 25 μM, eight days): partially reduced
